# Experiments:
# [1] = Cytotoxicity on NHDF cells in the anti-HCMV cytopathogenicity test; type: cell-based; conditions: human, NHDF cells (human prepuce fibroblasts), 6 days incubation, visual assessment of cytotoxic effects vs untreated cell control
# Description: (§1) Anti-HCMV (Anti-Human Cytomegalovirus) Cytopathogenicity Tests The test compounds are employed as 50 millimolar (mM) solutions in dimethyl sulfoxide (DMSO). Ganciclovir, foscamet and cidofovir are used as reference compounds. After addition of in each case 2 μl of the 50, 5, 0.5 and 0.05 mM DMSO stock solutions to 98 μl portions of cell culture medium in row […] for duplicate determinations, 1:2 dilutions are carried out with 50 μl portions of medium up to row 11 of the 96-well plate. The wells in rows 1 and 12 each contain 50 μl of medium. 150 μl of a suspension of 1×10^4 cells (human prepuce fibroblasts [NHDF]) are then pipetted into each of the wells (row 1=cell control) and, in rows 2-12, a mixture of HCMV-infected and uninfected NHDF cells (M.O.I.=0.001-0.002), i.e. 1-2 infected cells per 1000 uninfected cells. Row 12 (without substance) serves as virus control. The final test concentrations are 250-0.0005 μM. The plates are incubated at 37° C./5% CO2 for 6 days, i.e. until all the cells are infected in the virus controls (100% cytopathogenic effect [CPE]). The wells are then fixed and stained by adding a mixture of formalin and Giemsa's dye (30 minutes), washed with double-distilled water and dried in a drying oven at 50° C. The plates are then assessed visually using an overhead microscope (plaque multiplier from Technomara). The following data can be acquired from the test plates: CC50 (NHDF)=substance concentration in […] at which no visible cytotoxic effects on the cells are evident by comparison with the untreated cell control;
# [2] = test system: HCMV; assay: Anti-HCMV cytopathogenicity test; type: cell-based, human cytomegalovirus; conditions: for EC50: inhibition of CPE by 50% vs untreated virus control, HCMV-infected NHDF cells, M.O.I. 0.001-0.002, 6 days; for SI HCMV (selectivity index = CC50 (NHDF)/EC50 (HCMV)): ratio CC50 (NHDF)/EC50 (HCMV)
# Description: Anti-HCMV (Anti-Human Cytomegalovirus) Cytopathogenicity Tests The test compounds are employed as 50 millimolar (mM) solutions in dimethyl sulfoxide (DMSO). Ganciclovir, foscamet and cidofovir are used as reference compounds. After addition of in each case 2 μl of the 50, 5, 0.5 and 0.05 mM DMSO stock solutions to 98 μl portions of cell culture medium in row […] for duplicate determinations, 1:2 dilutions are carried out with 50 μl portions of medium up to row 11 of the 96-well plate. The wells in rows 1 and 12 each contain 50 μl of medium. 150 μl of a suspension of 1×10^4 cells (human prepuce fibroblasts [NHDF]) are then pipetted into each of the wells (row 1=cell control) and, in rows 2-12, a mixture of HCMV-infected and uninfected NHDF cells (M.O.I.=0.001-0.002), i.e. 1-2 infected cells per 1000 uninfected cells. Row 12 (without substance) serves as virus control. The final test concentrations are 250-0.0005 μM. The plates are incubated at 37° C./5% CO2 for 6 days, i.e. until all the cells are infected in the virus controls (100% cytopathogenic effect [CPE]). The wells are then fixed and stained by adding a mixture of formalin and Giemsa's dye (30 minutes), washed with double-distilled water and dried in a drying oven at 50° C. The plates are then assessed visually using an overhead microscope (plaque multiplier from Technomara). The following data can be acquired from the test plates: EC50 (HCMV)=substance concentration in μM which inhibits the CPE (cytopathic effect) by 50% compared with the untreated virus control; SI (selectivity index)=CC50 (NHDF)/EC50 (HCMV).
# [3] = test system: NHDF cells (human prepuce fibroblasts); assay: Cytotoxicity on NHDF cells in the anti-HCMV cytopathogenicity test; type: cell-based; conditions: 6 days incubation, visual assessment of cytotoxic effects vs untreated cell control
# Description: as §1
# [4] = Human betaherpesvirus 5, NHDF, 144 h
Compound,CC50 at 6 days [1],"EC50 [2, 4]",SI HCMV (selectivity index = CC50 (NHDF)/EC50 (HCMV)) [2],EC50 [2],CC50 [3]
"COc1cccc(-c2ccc(C3=Nc4c(F)cccc4C(CC(=O)O)N3c3cc(C(F)(F)F)ccc3OC)cc2)c1 (racemic) [Example 36, {2-[4-(3-Methoxyphenyl)phenyl]-8-fluoro-3-[2-methoxy-5-(trifluoromethyl)phenyl]-3,4-dihydro-4-quinazolinyl}acetic acid]",15 µM,0.01 µM,1500,–,–
"Cc1cc(-c2ccc(C3=Nc4c(F)cccc4C(CC(=O)O)N3c3cccc(C(F)(F)F)c3)cc2)ccc1F (stereo not drawn) [Example 5, {8-Fluoro-2-(4′-fluoro-3′-methyl-1,1′-biphenyl-4-yl)-3-[3-(trifluoromethyl)phenyl]-3,4-dihydro-4-quinazolinyl}acetic acid]",12 µM,0.74 µM,16,–,–
"O=C(O)CC1c2cccc(F)c2N=C(c2ccc(-c3ccc(F)cc3)cc2F)N1c1cccc(C(F)(F)F)c1 (stereo not drawn) [Example 7, {2-(3,4′-Difluoro-1,1′-biphenyl-4-yl)-8-fluoro-3-[3-(trifluoromethyl)phenyl]-3,4-dihydro-4-quinazolinyl}acetic acid]",31 µM,1.8 µM,17,–,–
"O=C(O)CC1c2cccc(F)c2N=C(c2ccc(-c3cccc(F)c3)cc2)N1c1cccc(C(F)(F)F)c1 (stereo not drawn) [Example 6, {8-Fluoro-2-(3′-fluoro-1,1′-biphenyl-4-yl)-3-[3-(trifluoromethyl)phenyl]-3,4-dihydro-4-quinazolinyl}acetic acid]",12 µM,0.35 µM,34,–,–
"Cc1cccc(-c2ccc(C3=Nc4c(F)cccc4C(CC(=O)O)N3c3cccc(C(F)(F)F)c3)cc2)c1 (racemic) [Example 3, {8-Fluoro-2-(3′-methyl-1,1′-biphenyl-4-yl)-3-[3-(trifluoromethyl)phenyl]-3,4-dihydro-4-quinazolinyl}acetic acid]",15 µM,–,115,0.13 µM,–
"COc1ccc(C(F)(F)F)cc1N1C(c2ccc(-c3ccc(F)cc3)cc2)=Nc2c(F)cccc2C1CC(=O)O (racemic) [Example 32, {2-[4-(4-Fluorophenyl)phenyl]-8-fluoro-3-[2-methoxy-5-(trifluoromethyl)phenyl]-3,4-dihydro-4-quinazolinyl}acetic acid]",15 µM,0.01 µM,1500,–,–
O=C(O)CC1c2cccc(F)c2N=C(c2ccc(-c3ccc(F)cc3)cc2)N1c1cccc(C(F)(F)F)c1 (racemic) [Example 1],15 µM,0.1 µM,150,–,–
"Cc1cccc(-c2ccc(C3=Nc4c(F)cccc4C(CC(=O)O)N3c3cccc(C(F)(F)F)c3)cc2)c1 (racemic) [Example 4, {8-Fluoro-2-(3′-methyl-1,1′-biphenyl-4-yl)-3-[3-(trifluoromethyl)phenyl]-3,4-dihydro-4-quinazolinyl}acetic acid]",–,–,143,0.06 µM,8.6 µM
"O=C(O)CC1c2cccc(F)c2N=C(c2ccc(-c3ccc(F)cc3)cc2)N1c1cccc(C(F)(F)F)c1 (racemic) [Example 2, {8-Fluoro-2-(4′-fluoro-1,1′-biphenyl-4-yl)-3-[3-(trifluoromethyl)phenyl]-3,4-dihydro-4-quinazolinyl}acetic acid]",–,–,171,0.07 µM,12 µM
